Earlier results, collected in patent US6271232A, “Collagenase-1 and stromelysin-1 inhibitors, pharmaceutical compositions comprising same and methods of their use” (Affymax Technologies, N.V., priority 1999, dated 2001).

Biological target: rabbit bone proteoglycanase
Conditions: Delaisse et al. (1985)

CNC(=O)[C@H](Cc1ccc(OC)cc1)NC(=O)[C@H](CC(C)C)NC(CCNC(=O)OCc1ccccc1)C(=O)O (stereo partly drawn) [N-[3-(benzyloxy-carbonyl)amino-1-carboxy-n-propyl]-L-leucyl-O-methyl-L-tyrosine, N-methylamide]
IC50: 500 nM
